Assay results as given in paper PMC10150354, “Linearization of the Brevicidine and Laterocidine Lipopeptides Yields Analogues That Retain Full Antibacterial Activity” (Journal of Medicinal Chemistry, 2023).
Converted amounts (≈) assume the structure as drawn. Where a SMILES comes first, the peptide text is derived from it. [ ]: non-standard residue; d: D form. The star is where a group is joined. ξ: configuration not given here. Octanoyl(7-Me) = CC(C)CCCCCC(=O)*; Hexanoyl(4ξ-Me) = CCC(C)CCC(=O)*; dOrn = NCCC[C@@H](N)C(=O)O; Orn = NCCC[C@H](N)C(=O)O; Dap = NC[C@H](N)C(=O)O; Alloc = C=CCOC(=O)*; OAll = C=CCO*

Legend:
[1] = system: E. coli (MCR-1); assay type: cell-based, Escherichia coli; settings: microbroth dilution per CLSI, MHB, 18 h at 37 °C, visual inspection, three technical replicates, E. coli 25922 carrying mcr-1
In short: (§1)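 Broth microdilution per CLSI in MHB: TSB cultures grown to OD600 ~0.5 were diluted to 2 × 10^5 CFU/mL and added to serially diluted compounds, then incubated 18 h at 37 °C with shaking. MIC is the lowest concentration preventing visible growth, from three technical replicates; the MCR-1 strain (E. coli ATCC 25922 background) was grown with kanamycin.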

[2] = system: E. coli ATCC 25922; assay type: cell-based, Escherichia coli; settings: for Antibacterial activity (MIC) E. coli ATCC 25922: microbroth dilution per CLSI, MHB, 18 h at 37 °C, visual inspection, three technical replicates; for MIC (µg/mL) against E. coli (ATCC 25922): (Supplement 2)
In short: as §1

[3] = system: K. pneumoniae ATCC 13883; assay type: cell-based, Klebsiella pneumoniae; settings: microbroth dilution per CLSI, MHB, 18 h at 37 °C, visual inspection, three technical replicates
In short: as §1

[4] = system: A. baumannii ATCC 17961; assay type: cell-based, Acinetobacter baumannii; settings: microbroth dilution per CLSI, MHB, 18 h at 37 °C, visual inspection, three technical replicates
In short: as §1

[5] = system: P. aeruginosa PAO1; assay type: cell-based, Pseudomonas aeruginosa; settings: microbroth dilution per CLSI, MHB, 18 h at 37 °C, visual inspection, three technical replicates
In short: as §1

[6] = system: S. aureus USA300; assay type: cell-based, Staphylococcus aureus; settings: microbroth dilution per CLSI, MHB, 18 h at 37 °C, visual inspection, three technical replicates
In short: as §1

SMILES	Antibacterial activity (MIC) E. coli (MCR-1) [1]	Antibacterial activity (MIC) E. coli ATCC 25922 [2]	Antibacterial activity (MIC) K. pneumoniae ATCC 13883 [3]	Antibacterial activity (MIC) A. baumannii ATCC 17961 [4]	Antibacterial activity (MIC) P. aeruginosa PAO1 [5]	Antibacterial activity (MIC) S. aureus USA300 [6]	MIC (µg/mL) against E. coli (ATCC 25922) [2]
CCC(C)CCC(=O)N[C@H](CC(N)=O)C(=O)N[C@H](Cc1ccc(O)cc1)C(=O)N[C@H](Cc1c[nH]c2ccccc12)C(=O)N[C@H](C)C(=O)N[C@@H](CCCN)C(=O)NCC(=O)N[C@H](CCCN)C(=O)N[C@@H](Cc1c[nH]c2ccccc12)C(=O)N[C@H](C(=O)N[C@H](C(=O)NCC(=O)N[C@@H](CO)C(N)=O)[C@@H](C)CC)[C@@H](C)O (stereo partly drawn) [LB(D-Ala4)-NH2 (20)] ({Hexanoyl(4ξ-Me)}-[dN][dY][dW][dA][Orn]G[dOrn]WTIGS-NH2)	>32 µg/mL	>32 µg/mL	>32 µg/mL	32 µg/mL	32 µg/mL	>32 µg/mL	–
CCC(C)CCC(=O)N[C@H](CC(N)=O)C(=O)N[C@H](Cc1ccc(O)cc1)C(=O)N[C@H](Cc1c[nH]c2ccccc12)C(=O)N[C@H](CCCN)C(=O)N[C@@H](CCCN)C(=O)NCC(=O)N[C@H](CCCN)C(=O)N[C@@H](Cc1c[nH]c2ccccc12)C(=O)N[C@@H](CN)C(=O)N[C@H](C(=O)NCC(N)=O)[C@@H](C)CC (stereo partly drawn) [Δ12LB (Dap9)-NH2 (64)] ({Hexanoyl(4ξ-Me)}-[dN][dY][dW][dOrn][Orn]G[dOrn]W[Dap]IG-NH2)	8 µg/mL	8 µg/mL	>32 µg/mL	16 µg/mL	4 µg/mL	>32 µg/mL	>32 µg/mL
CCC(C)CCC(=O)N[C@H](CC(N)=O)C(=O)N[C@H](Cc1ccc(O)cc1)C(=O)N[C@H](Cc1c[nH]c2ccccc12)C(=O)N[C@H](CCCN)C(=O)N[C@@H](CCCN)C(=O)NCC(=O)N[C@H](CCCN)C(=O)N[C@@H](Cc1c[nH]c2ccccc12)C(=O)N[C@H](C(=O)N[C@H](C(=O)NCC(=O)N[C@@H](CO)C(=O)O)[C@@H](C)CC)[C@@H](C)O (stereo partly drawn) [LB-OH (5)] ({Hexanoyl(4ξ-Me)}-[dN][dY][dW][dOrn][Orn]G[dOrn]WTIGS-OH)	>32 µg/mL	>32 µg/mL	>32 µg/mL	>32 µg/mL	16 µg/mL	>32 µg/mL	–
CCC(C)CCC(=O)N[C@H](CC(N)=O)C(=O)N[C@H](Cc1ccc(O)cc1)C(=O)N[C@H](Cc1c[nH]c2ccccc12)C(=O)N[C@H](CCCN)C(=O)N[C@@H](CCCN)C(=O)NCC(=O)N[C@H](CCCN)C(=O)N[C@@H](Cc1c[nH]c2ccccc12)C(=O)N[C@@H](Cc1c[nH]c2ccccc12)C(=O)N[C@H](C(=O)NCC(N)=O)[C@@H](C)CC (stereo partly drawn) [Δ12LB (Trp9)-NH2 (56)] ({Hexanoyl(4ξ-Me)}-[dN][dY][dW][dOrn][Orn]G[dOrn]WWIG-NH2)	4 µg/mL	4 µg/mL	8 µg/mL	4 µg/mL	8 µg/mL	16 µg/mL	4 µg/mL (≈ 2.61 µM)
CCC(C)CCC(=O)N[C@H](CC(N)=O)C(=O)N[C@H](Cc1ccc(O)cc1)C(=O)N[C@H](Cc1c[nH]c2ccccc12)C(=O)N[C@H](CCCN)C(=O)N[C@@H](CCCN)C(=O)NCC(=O)N[C@H](CCCN)C(=O)N[C@@H](Cc1c[nH]c2ccccc12)C(=O)N[C@H](C(=O)N[C@H](C(=O)NCC(N)=O)[C@@H](C)CC)[C@@H](C)O (stereo partly drawn) [Δ12LB-NH2 (9)] ({Hexanoyl(4ξ-Me)}-[dN][dY][dW][dOrn][Orn]G[dOrn]WTIG-NH2)	16 µg/mL	8 µg/mL	8 µg/mL	8 µg/mL	4 µg/mL	>32 µg/mL	–
CC[C@H](C)[C@H](NC(=O)[C@@H](NC(=O)[C@H](Cc1c[nH]c2ccccc12)NC(=O)[C@@H](CCCN)NC(=O)CNC(=O)[C@H](CCCN)NC(=O)[C@@H](CCCN)NC(=O)[C@@H](Cc1c[nH]c2ccccc12)NC(=O)[C@@H](C)NC(=O)[C@@H](CO)NC(=O)CCCCCC(C)C)[C@@H](C)O)C(=O)N[C@@H](CC(N)=O)C(=O)NCC(=O)NCC(N)=O [LL(D-Ala2)-NH2 (30)] ({Octanoyl(7-Me)}-[dS][dA][dW][dOrn][Orn]G[dOrn]WTINGG-NH2)	32 µg/mL	32 µg/mL	>32 µg/mL	>32 µg/mL	16 µg/mL	>32 µg/mL	–
C=CCOC(=O)CC[C@H](NC(=O)[C@H](Cc1c[nH]c2ccccc12)NC(=O)[C@@H](CCCN)NC(=O)CNC(=O)[C@H](CCCN)NC(=O)[C@@H](CCCN)NC(=O)[C@@H](Cc1c[nH]c2ccccc12)NC(=O)[C@@H](Cc1ccc(O)cc1)NC(=O)[C@@H](CC(N)=O)NC(=O)CCC(C)CC)C(=O)N[C@H](C(=O)NCC(N)=O)[C@@H](C)CC (stereo partly drawn) [Δ12LB (Glu[OAll]9)-NH2 (62)] ({Hexanoyl(4ξ-Me)}-[dN][dY][dW][dOrn][Orn]G[dOrn]WE(OAll)IG-NH2)	8 µg/mL	4 µg/mL	4 µg/mL	8 µg/mL	2 µg/mL	>32 µg/mL	4 µg/mL (≈ 2.64 µM)
CCC(C)CCC(=O)N[C@H](CC(N)=O)C(=O)N[C@H](Cc1ccc(O)cc1)C(=O)N[C@H](Cc1c[nH]c2ccccc12)C(=O)N[C@H](CCCN)C(=O)N[C@@H](CCCN)C(=O)NCC(=O)N[C@H](CCCN)C(=O)N[C@@H](Cc1c[nH]c2ccccc12)C(=O)N[C@H](C(N)=O)[C@@H](C)O (stereo partly drawn) [Δ10–12LB-NH2 (13)] ({Hexanoyl(4ξ-Me)}-[dN][dY][dW][dOrn][Orn]G[dOrn]WT-NH2)	>32 µg/mL	>32 µg/mL	>32 µg/mL	>32 µg/mL	>32 µg/mL	>32 µg/mL	–
CCC(C)CCC(=O)N[C@H](CC(N)=O)C(=O)N[C@H](Cc1ccc(O)cc1)C(=O)N[C@H](Cc1c[nH]c2ccccc12)C(=O)N[C@H](CCCN)C(=O)N[C@@H](CCCN)C(=O)NCC(=O)N[C@H](CCCN)C(=O)N[C@@H](Cc1c[nH]c2ccccc12)C(=O)N[C@@H](CC(C)C)C(=O)N[C@H](C(=O)NCC(N)=O)[C@@H](C)CC (stereo partly drawn) [Δ12LB (Leu9)-NH2 (53)] ({Hexanoyl(4ξ-Me)}-[dN][dY][dW][dOrn][Orn]G[dOrn]WLIG-NH2)	4 µg/mL	4 µg/mL	4 µg/mL	4 µg/mL	8 µg/mL	>32 µg/mL	8 µg/mL (≈ 5.47 µM)
C=CCOC(=O)NC[C@H](NC(=O)[C@H](Cc1c[nH]c2ccccc12)NC(=O)[C@@H](CCCN)NC(=O)CNC(=O)[C@H](CCCN)NC(=O)[C@@H](CCCN)NC(=O)[C@@H](Cc1c[nH]c2ccccc12)NC(=O)[C@@H](Cc1ccc(O)cc1)NC(=O)[C@@H](CO)NC(=O)CCCCCC(C)C)C(=O)N[C@H](C(=O)N[C@@H](CC(N)=O)C(=O)NCC(=O)NCC(N)=O)[C@@H](C)CC [LL(Dap[Alloc]9)-NH2 (50)] ({Octanoyl(7-Me)}-[dS][dY][dW][dOrn][Orn]G[dOrn]W[Dap](Alloc)INGG-NH2)	4 µg/mL	2 µg/mL	4 µg/mL	4 µg/mL	8 µg/mL	>32 µg/mL	2 µg/mL (≈ 1.18 µM)
CCC(C)CCC(=O)N[C@H](CC(N)=O)C(=O)N[C@H](Cc1ccc(O)cc1)C(=O)N[C@H](Cc1c[nH]c2ccccc12)C(=O)N[C@H](CCCN)C(=O)N[C@@H](CCCN)C(=O)NCC(=O)N[C@H](CCCN)C(=O)N[C@@H](Cc1c[nH]c2ccccc12)C(=O)N[C@@H](CCSC)C(=O)N[C@H](C(=O)NCC(N)=O)[C@@H](C)CC (stereo partly drawn) [Δ12LB (Met9)-NH2 (55)] ({Hexanoyl(4ξ-Me)}-[dN][dY][dW][dOrn][Orn]G[dOrn]WMIG-NH2)	4 µg/mL	4 µg/mL	4 µg/mL	4 µg/mL	4 µg/mL	>32 µg/mL	2 µg/mL (≈ 1.35 µM)
